# Source: patent US10538561B2, “Peptide for treating inflammatory diseases” (priority 2015, dated 2020)
# How the values were obtained:
# [1] = Cell viability (MTT assay) in PBMCs; assay type: cell-based, Human; details: human, PBMCs
# Protocol: (§1) Cell Lines/Cells: Human Keratinocytes (HaCaT); Human melanoma (SK-MEL-28); Human PBMCs. Test Item: IS181 Treatment regimen: Single addition—24 h, ^#Multiple additions (3)−72 h; Concentration range: 1 ng/ml-2 mg/ml (triplicate wells); Sera Condition: […] Method of estimation: MTT assay. […] Positive control: Triton-X-100, Doxorubicin Hydrochloride.
# Human PBMCs = test: Cell viability (MTT assay) in PBMCs; assay type: cell-based; details: for IC50 value / cytotoxicity: PBMCs
# Protocol: as §1
# IL-1-β = test: LPS stimulated IL-1-β secretion in RAW264.7; assay type: cell-based, Mouse; details: for IL-1-β % decrease with respect to LPS / IL-1-β Conc: RAW264.7 + LPS, 24 h
# Protocol: Effect on pro-inflammatory cytokines against LPS stimulation: TNF-α; IL-6; IL-1-β: Cell lines: Murine macrophage cell line (RAW264.7); test item: IS181; experimental steps: pretreatment of cells with TI for 2 hours; stimulation with LPS (100 ng/ml) for 24 hours; supernatant collection for cytokine analysis; concentration range: o.1 μg/ml-500 μg/ml (duplicate wells); Cytokines: TNF-α; IL-6; IL-1-β; Method of estimating cytokines: ELISA; positive control: dexamethasone.
# Cell line: RAW264.7 (Mouse macrophages); TI treatment regimen: Pretreatment for 2 h; TI Concentration range: 0.1 μg/ml-500 μg/ml (duplicate wells); LPS stimulation: 100 ng/ml; Time point for supernatants collection: 24 h; Method of estimation: ELISA; Positive control: Dexamethasone
# IL-8 = test: LPS+PMA stimulated IL-8 secretion in HaCaT; assay type: cell-based, Human; details: for IL-8 % decrease with respect to LPS + PMA / IL-8 Conc: HaCaT + LPS + PMA, 24 h
# Protocol: Effect on pro-inflammatory cytokines against TNF-α/LPS+PMA stimulation: TNF-α; IFN-γ; TARC; TSLP; IL-6; IL-8: Cell lines: Human keratinocytes (HaCaT); test item (TI); IS181; experimental steps: pre-treatment of cells with TI for 2 hours; stimulation with TNF-α: 20 ng/ml; stimulation with LPS+PMA-10 μg/ml LPS+40 ng/ml PMA; supernatant collection for cytokine analysis after 24 hours; concentration range: 0.1 μg/ml-100 μg/ml (duplicate wells); cytokines: TNF-α; IFN-γ; TARC; TSLP; IL-6; IL-8. Method of estimating cytokines: ELISA; positive control: dexamethasone.
# Cell line: HaCaT (Human Keratinocytes); TI Treatment regimen: Pretreatment for 2 h; TI Concentration range: 0.1 μg/ml-100 μg/ml (duplicate wells); TNF-α stimulation: 20 ng/ml; LPS+PMA stimulation: 10 μg/ml LPS+40 ng/ml PMA; Time point for supernatants collection: 24 h; Method of estimation: ELISA; Positive control: Dexamethasone
# [2] = Cell viability of splenocytes (MTT); assay type: cell-based, mouse; details: mouse, mouse splenocytes, splenocytes, 24 h
# Protocol: (§2) Cell lines: mouse splenocytes; test item: IS181; treatment regimen: single addition—24 hours; concentration range: 10 μg/ml-5000 μg/ml.A) Identification of non-cytotoxic concentrations: splenocytes were treated with IS181 for 24 hours. Effect on cell viability was assessed by MTT assay. Concentrations leading to >75% cell viability were selected for IL-17 assay. B) IL-17 assay: splenocytes were treated with IS181 in presence of ConA stimulation for 24 hours. Supernatants were collected and stored at −20° C. till analysed. Levels of IL-17 were analysed in supernatants by ELISA. Percent inhibition of IL-17 secretion was calculated with reference to ConA treated levels. Positive control: curcumin.
# mouse splenocytes = test: Cell viability of splenocytes (MTT); assay type: cell-based; details: splenocytes
# Protocol: as §2
# PRKCA (PKC alpha) = PRKCA (PKC alpha) (Homo sapiens, UniProt P17252); test: Biochemical kinase assay PRKCA
# Protocol: Test system: cell free assays; test items: IS181; concentrations tested: 1 ng/ml-5000 μg/ml; Kinases: a) Cell free assays: EGFR (ErbB1); FLT1 (VEGFR1); JAK1; JAK3 MAP2K1 (MEK1); PDGFRA (PDGFR alpha); PRKCA (PKC alpha); b) cell based assay: JAK-STAT.
# in vitro = details: human
# Protocol: The cells were then incubated for 72 hours. Percentage cytotoxicity was determined using MTT assay.
substance,measurement,setting,value
"H-WVQRVVEKFLK-OH [IS181, H-Trp-Val-Gln-Arg-Val-Val-Glu-Lys-Phe-Leu-Lys-OH]","cytotoxicity at 24 h, 1000 μg/ml","[1]; human PBMCs, 24 h, 1000 μg/ml",40.2%
same,"cytotoxicity at 24 h, 2000 μg/ml","[1]; human PBMCs, 24 h, 2000 μg/ml",53%
same,"cytotoxicity at 72 h, 500 μg/ml","[1]; human PBMCs, 72 h, 500 μg/ml",32.7%
same,"cytotoxicity at 72 h, 1000 μg/ml","[1]; human PBMCs, 72 h, 1000 μg/ml",70.8%
same,"cytotoxicity at 72 h, 2000 μg/ml","[1]; human PBMCs, 72 h, 2000 μg/ml",66.1%
same,"cytotoxicity at 24 h, 10 μg/ml","[1]; peripheral blood mononuclear cells (PBMCs), 24 h, 10 μg/ml",-76.5%
same,"cytotoxicity at 24 h, 50 μg/ml","[1]; peripheral blood mononuclear cells (PBMCs), 24 h, 50 μg/ml",-67.1%
same,"cytotoxicity at 24 h, 100 μg/ml","[1]; peripheral blood mononuclear cells (PBMCs), 24 h, 100 μg/ml",-88.3%
same,"cytotoxicity at 24 h, 500 μg/ml","[1]; peripheral blood mononuclear cells (PBMCs), 24 h, 500 μg/ml",-105%
same,"cytotoxicity at 72 h, 10 μg/ml","[1]; peripheral blood mononuclear cells (PBMCs), 72 h, 10 μg/ml",18.7%
same,"cytotoxicity at 72 h, 50 μg/ml","[1]; peripheral blood mononuclear cells (PBMCs), 72 h, 50 μg/ml",20.1%
same,"cytotoxicity at 72 h, 100 μg/ml","[1]; peripheral blood mononuclear cells (PBMCs), 72 h, 100 μg/ml",14%
same,IC50,Human PBMCs; 24 h,1.4 mM
same,IC50,Human PBMCs; 72 h,0.68 mM
same,IC50 value,Human PBMCs; 24 h,2 mg/mL
same,cytotoxicity,"Human PBMCs; 24 h, at concentrations 1 mg/ml",40% to 53%
same,IC50 value,Human PBMCs; 72 h,0.98 mg/mL
same,cytotoxicity,"Human PBMCs; 72 h, concentrations >0.5 mg/ml",33% to 66%
same,IL-1-β inhibition as compared to LPS stimulated levels,IL-1-β; RAW264.7,good extent of IL-1-β inhibition
same,IL-1-β % decrease with respect to LPS,IL-1-β; 0.1 μ/ml,90.0%
same,IL-1-β Conc,IL-1-β; 0.1 μ/ml,2.2 pg/mL
same,IL-1-β % decrease with respect to LPS,IL-1-β; 1 μ/ml,30.3%
same,IL-1-β Conc,IL-1-β; 1 μ/ml,15.4 pg/mL
same,IL-1-β % decrease with respect to LPS,IL-1-β; 5 μ/ml,53.7%
same,IL-1-β Conc,IL-1-β; 5 μ/ml,10.2 pg/mL
same,IL-1-β % decrease with respect to LPS,IL-1-β; 10 μ/ml,71.9%
same,IL-1-β Conc,IL-1-β; 10 μ/ml,6.2 pg/mL
same,IL-1-β % decrease with respect to LPS,IL-1-β; 100 μ/ml,42.4%
same,IL-1-β Conc,IL-1-β; 100 μ/ml,12.7 pg/mL
same,IL-1-β % decrease with respect to LPS,IL-1-β; 500 μ/ml,72.6%
same,IL-1-β Conc,IL-1-β; 500 μ/ml,6.1 pg/mL
same,decrease in IL-1-β level,"IL-1-β; RAW264.7, 0.1 μg/ml-500 μg/ml",30.3%-90%
same,IL-8 inhibition,IL-8; HaCaT,good extent of TSLP and IL-8 inhibition
same,IL-8 % decrease with respect to LPS + PMA,IL-8; 0.1 μg/ml,8.8%
same,IL-8 Conc,IL-8; 0.1 μg/ml,357.4 pg/mL
same,IL-8 % decrease with respect to LPS + PMA,IL-8; 1 μg/ml,19.8%
same,IL-8 Conc,IL-8; 1 μg/ml,314.5 pg/mL
same,IL-8 % decrease with respect to LPS + PMA,IL-8; 5 μg/ml,4.3%
same,IL-8 Conc,IL-8; 5 μg/ml,375.3 pg/mL
same,IL-8 % decrease with respect to LPS + PMA,IL-8; 10 μg/ml,19.4%
same,IL-8 Conc,IL-8; 10 μg/ml,316.1 pg/mL
same,IL-8 % decrease with respect to LPS + PMA,IL-8; 100 μg/ml,−18.1%
same,IL-8 Conc,IL-8; 100 μg/ml,463.1 pg/mL
same,"viability at 24 h, 10 μg/ml",[2]; 10 μg/ml,97%
same,"viability at 24 h, 50 μg/ml",[2]; 50 μg/ml,110%
same,"viability at 24 h, 100 μg/ml",[2]; 100 μg/ml,110%
same,"viability at 24 h, 500 μg/ml",[2]; 500 μg/ml,94.6%
same,"viability at 24 h, 1 mg/ml",[2]; 1 mg/ml,79.4%
same,"viability at 24 h, 2 mg/ml",[2]; 2 mg/ml,51.6%
same,"viability at 24 h, 5 mg/ml",[2]; 5 mg/ml,25.6%
same,cytotoxicity,mouse splenocytes,< 25%
same,cytotoxicity,mouse splenocytes; 2 mg/ml,48.4%
same,cytotoxicity,mouse splenocytes; 5 mg/ml,74.4%
same,inhibition at 10 µg/mL,PRKCA (PKC alpha); 10 μg/ml,20%
same,inhibition at 50 µg/mL,"PRKCA (PKC alpha); cell free, 50 μg/ml",20%
same,inhibition at 100 µg/mL,"PRKCA (PKC alpha); cell free, 100 μg/ml",8%
same,inhibition at 250 µg/mL,"PRKCA (PKC alpha); cell free, 250 μg/ml",-8%
same,inhibition at 500 µg/mL,"PRKCA (PKC alpha); cell free, 500 μg/ml",-17%
same,inhibition at 1000 µg/mL,"PRKCA (PKC alpha); cell free, 1000 μg/ml",-19%
same,inhibition at 2000 µg/mL,"PRKCA (PKC alpha); cell free, 2000 μg/ml",-80%
same,"cytotoxicity at 72 h, 5000 μg/ml",in vitro; HaCaT keratinocyte cells,96.1%
same,"cytotoxicity at 72 h, 10 μg/ml",in vitro; HaCaT keratinocytes,16.7%
same,"cytotoxicity at 72 h, 50 μg/ml",in vitro; HaCaT keratinocytes,17.8%
same,"cytotoxicity at 72 h, 500 μg/ml",in vitro; HaCaT keratinocytes,26.9%
same,"cytotoxicity at 72 h, 1000 μg/ml",in vitro; HaCaT keratinocytes,82.8%
same,"cytotoxicity at 72 h, 2000 μg/ml",in vitro; HaCaT keratinocytes,75%
